Experimental data as given in PubChem BioAssay AID256 (DTP/NCI, 2004).
Toxic doses and inconclusive results are not listed. Rule for the calls: active = survival T/C of 150% or more; inactive = T/C below 125% in these data.

Test system: CD2F1 mice, L1210 leukemia ip, survival T/C
Assay: NCI In Vivo Anticancer Drug Screen. Data for tumor model L1210 Leukemia (intraperitoneal) in CD2F1 (CDF1) mice
Details: endpoint: mean survival time, higher = longer survival
Outline: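 Activity against a transplanted murine tumor was judged by comparing the compound group with a vehicle group. The outcome in the treated animals was divided by that in the controls.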

[1] = dose: 100.0 mg/kg/injection, schedule: Q01DX009 (ip), vehicle: saline with Tween-80
[2] = dose: 200.0 mg/kg/injection, schedule: Q01DX009 (ip), vehicle: saline with Tween-80
[3] = dose: 400.0 mg/kg/injection, schedule: Q01DX009 (ip), vehicle: saline with Tween-80
[4] = dose: 100.0 mg/kg/injection, schedule: Q01DX001 (ip), vehicle: saline with Tween-80
[5] = dose: 200.0 mg/kg/injection, schedule: Q01DX001 (ip), vehicle: saline with Tween-80
[6] = dose: 400.0 mg/kg/injection, schedule: Q01DX001 (ip), vehicle: saline with Tween-80
[7] = dose: 100.0 mg/kg/injection, schedule: Q04DX003 (ip), vehicle: Klucel (hydroxypropylcellulose) (HPC)
[8] = dose: 200.0 mg/kg/injection, schedule: Q04DX003 (ip), vehicle: Klucel (hydroxypropylcellulose) (HPC)
[9] = dose: 400.0 mg/kg/injection, schedule: Q04DX003 (ip), vehicle: Klucel (hydroxypropylcellulose) (HPC)

Measured: T/C

CC12CCC(=O)C=C1CC(CC(=O)O)CC2 (stereo unspecified)
inactive: dose: 100.0 mg/kg/injection, schedule: Q04DX002 (ip), vehicle: saline with Tween-80 100 % of control | dose: 200.0 mg/kg/injection, schedule: Q04DX002 (ip), vehicle: saline with Tween-80 108 % of control | dose: 400.0 mg/kg/injection, schedule: Q04DX002 (ip), vehicle: saline with Tween-80 104 % of control

COC(=O)C1C=CCC=C1OC (stereo unspecified)
inactive: [1] 113 % of control | [2] 104 % of control | [3] 109 % of control

CC(=O)OCCCC(C)Nc1ccnc2cc(Cl)ccc12 (stereo unspecified)
inactive: dose: 50.0 mg/kg/injection, schedule: Q01DX009 (ip), vehicle: saline with Tween-80 100 % of control | [1] 96 % of control | dose: 100.0 mg/kg/injection, schedule: Q04DX003 (ip), vehicle: saline with Tween-80 96 % of control | [2] 96 % of control | dose: 200.0 mg/kg/injection, schedule: Q04DX003 (ip), vehicle: saline with Tween-80 98 % of control

Nc1ccc(C(=O)Nc2cccc(S(=O)(=O)F)c2)cc1
inactive: [4] 101 % of control | [5] 98 % of control | [6] 93 % of control

COC12CCCC1S(=O)(=O)C2 (stereo unspecified)
inactive: dose: 25.0 mg/kg/injection, schedule: Q04DX003 (ip), vehicle: saline 101 % of control | dose: 50.0 mg/kg/injection, schedule: Q04DX003 (ip), vehicle: saline 108 % of control | dose: 100.0 mg/kg/injection, schedule: Q04DX003 (ip), vehicle: saline 95 % of control

O=c1ccn(C2OC(CO)C(O)C2O)c(/C=C(\O)c2ccccc2)n1 (stereo unspecified)
inactive: dose: 12.5 mg/kg/injection, schedule: Q01DX005 (ip), vehicle: distilled water + Tween-80 105 % of control | dose: 25.0 mg/kg/injection, schedule: Q01DX005 (ip), vehicle: distilled water + Tween-80 97 % of control | dose: 50.0 mg/kg/injection, schedule: Q01DX005 (ip), vehicle: distilled water + Tween-80 97 % of control | dose: 100.0 mg/kg/injection, schedule: Q01DX005 (ip), vehicle: distilled water + Tween-80 102 % of control | dose: 200.0 mg/kg/injection, schedule: Q01DX005 (ip), vehicle: distilled water + Tween-80 102 % of control

Cc1ccc(C(=O)Nc2ccccc2I)cc1
inactive: [1] 97 % of control | [2] 101 % of control | [3] 97 % of control

O=C1CC(c2ccccc2)=NN1c1ccccc1
inactive: [7] 98 % of control | [8] 95 % of control | [9] 101 % of control

O=S(=O)(/C=C/S(=O)(=O)c1ccccc1)c1ccccc1
inactive: dose: 62.5 mg/kg/injection, schedule: Q01DX009 (ip), vehicle: Klucel (hydroxypropylcellulose) (HPC) 97 % of control | dose: 125.0 mg/kg/injection, schedule: Q01DX009 (ip), vehicle: Klucel (hydroxypropylcellulose) (HPC) 98 % of control

Nc1ccc(-c2nc(-c3ccccc3)c(-c3ccccc3)[nH]2)cc1
inactive: dose: 12.5 mg/kg/injection, schedule: Q01DX001 (ip), vehicle: saline with Tween-80 94 % of control | dose: 25.0 mg/kg/injection, schedule: Q01DX001 (ip), vehicle: saline with Tween-80 102 % of control | dose: 50.0 mg/kg/injection, schedule: Q01DX001 (ip), vehicle: saline with Tween-80 102 % of control | [6] 87 % of control

CSCC12CCCC=C1CC1(CC2)OCCO1 (stereo unspecified)
inactive: [4] 96 % of control | [5] 96 % of control | [6] 96 % of control

OC(CI)C1OCOC2COCOC21 (stereo unspecified)
inactive: [7] 102 % of control | [8] 94 % of control | [9] 97 % of control

COc1ccc(NC(=O)c2ccc(S(=O)(=O)F)cc2)cc1
inactive: [4] 97 % of control | [5] 95 % of control | [6] 94 % of control

CC(=O)Nc1ccc(S(=O)(=O)CBr)cc1
inactive: dose: 100.0 mg/kg/injection, schedule: Q01DX001 (ip), vehicle: saline 102 % of control | dose: 200.0 mg/kg/injection, schedule: Q01DX001 (ip), vehicle: saline 97 % of control | dose: 400.0 mg/kg/injection, schedule: Q01DX001 (ip), vehicle: saline 96 % of control
